In patent US10653680B2, “Treatment of impulsivity-related disorders” (OXFORD UNIVERSITY INNOVATION LIMITED, priority 2016, dated 2020):

Experiments:
[1] = test system: rats; assay: 5-CSRTT, stimulant (cocaine)-induced responding; format: in vivo, rats (males; Long Evans)
Method: (§1) Testing was carried out in Vancouver (Canada) using rats (males; Long Evans from Charles River) which were given at least two weeks to acclimatise to the animal facility. They were housed in pairs on a 12 hour reverse light-dark cycle (lights off at 7 am). In the second week of acclimatisation, rats were handled briefly each day. […] For each task, there was then a habituation session to the operant boxes before training began.
(§2) Ebselen, cocaine and 2,5-dimethoxy-4-iodoamphetamine (DOI) were obtained from Sigma Aldrich, and MDL 100,907 was obtained from Tocris. Ebselen was dissolved in 0.5M DMSO and made up to injection volume (8 ml/kg) using 4% cyclodextrin. Cocaine and DOI were dissolved in 0.9% saline. MDL 100,907 was dissolved in 0.9% saline and the pH was adjusted to 6.25 using 1M NaOH and 0.1M HCl.
(§3) All data for the cognitive tasks are presented as mean+SEM change from baseline: • performance on drug day−performance on the previous day
In experiments investigating the effect of ebselen on cocaine and DOI, data were analysed with a two-way ANOVA with ebselen and cocaine/DOI as between-subject factors. If an interaction was detected, this was further investigated using simple main effects analysis. All analyses were conducted using SPSS 22 with p<0.05 considered significant.
To assess the effect of ebselen on stimulant-induced responding, ebselen (10 mg/kg) or vehicle was administered 1 hour prior to cocaine (15 mg/kg i.p.), which in turn was administered 10 minutes prior to testing. Treatments were administered using according to a Latin square design. The inter-trial interval for these sessions was 5 seconds. Two rats were excluded from the data due to increasing levels of omissions across all days of this portion of the study. The experiment was repeated using 0.03 mg/kg MDL 100,907 instead of ebselen.

[2] = test system: rats; assay: 5 Choice Serial Reaction Time Task (5-CSRTT); format: in vivo, rats (males; Long Evans)
Method: as §1, §2, §3
The data were analysed with repeated measures ANOVA with dose as a within-subject factor. Where appropriate, post-hoc analysis was performed using Student's paired t-test.
This test was performed as described previously (Bari et al., Nature Protocols, 2008, 3(5), 759-767; Robbins, Psychopharmacology, 2002, 163(3), 362-380).
Fourteen rats were trained to respond to brief visual cues presented in one of five target areas with an inter-trial interval of 5 seconds. On the day of testing in the presence of ebselen, the inter-trial interval was lengthened to 7 seconds to cause a reliable increase in premature responding.
Ebselen and vehicle were administered by intraperitoneal (i.p.) injection 1 hour prior to testing. Three doses of ebselen (2, 5 or 10 mg/kg) were studied, administration being in a random order that was determined by a Latin square design. Rats were run five days a week, with the treatment day falling on day three.
Following ebselen, 3 doses of MDL 100,907 (0.01, 0.03 and 0.1 mg/kg, i.p.) were tested in a Latin square design with the first injection occurring one week after the final injection of ebselen. MDL 100,907 is a selective 5-HT2A antagonist. Rats were similarly run five days a week with injections falling on the third day, and the lengthened inter-trial interval was used only on the drug-administration day.
The Latin square design (for both the 5-CSRTT and rGT experiments) was counterbalanced, based on performance in the last training day of each task. A one week wash-out period was given between drug-administration days. A baseline session was performed both the day before and the day after treatment to ensure stable off-drug performance.

SMILES: COc1cccc([C@H](O)C2CCN(CCc3ccc(F)cc3)CC2)c1OC [MDL 100,907, reference compound]
- cocaine-induced increases in premature responding ([1]; MDL 100,907 0.03 mg/kg before cocaine 15 mg/kg i.p., p=0.282): did not reduce cocaine-induced increases in premature responding
- correct response latency ([1]; MDL 100,907 0.03 mg/kg, cocaine experiment, p=0.072): increased trend
- accuracy (decrease seen following vehicle injection) ([2]; MDL 100,907 0.01 mg/kg (second mention), p=0.027): significantly negated the decrease in accuracy
- accuracy (decrease seen following vehicle injection) ([2]; MDL 100,907 0.01 mg/kg i.p., p=0.020): significantly negated the decrease in accuracy
- accuracy (decrease seen following vehicle injection) ([2]; MDL 100,907 0.03 mg/kg i.p., p=0.052): trend
- other parameters of the 5-CSRTT ([2]; MDL 100,907 0.01, 0.03, 0.1 mg/kg i.p., p=0.170-0.872): no detectable effects
- premature responding ([2]; MDL 100,907 at all dosage levels (0.01, 0.03 and 0.1 mg/kg i.p.) vs vehicle, p=0.008, 0.009, 0.001): decreased premature responding
